Test results published in PMC9551036, “A selective and orally bioavailable VHL-recruiting PROTAC achieves SMARCA2 degradation in vivo” (Nature Communications, 2022).
Several values for one entry are separate records, joined by “and”; a condition that tells them apart may be missing. Identical values can stand only once. Like-named read-outs stand apart in the source and are kept apart here.

Assays:
[1] = target: T1, VCB: PROTAC: SMARCA2^BD ternary complex (Homo sapiens, UniProt P51531); test: TR-FRET ternary complex affinity and cooperativity, SMARCA2; format: binding
T1 construct: P51531-2, residues 1373-1493 with additional N-terminal SM residues; GST (TEV site) (N); His6 (TEV site) (N, cleaved yes); made in house; host or cells: SMARCA2^BD: Escherichia coli BL21(DE3)
T1 sequence (P51531 with tags, fused parts or gaps isoform P51531-2): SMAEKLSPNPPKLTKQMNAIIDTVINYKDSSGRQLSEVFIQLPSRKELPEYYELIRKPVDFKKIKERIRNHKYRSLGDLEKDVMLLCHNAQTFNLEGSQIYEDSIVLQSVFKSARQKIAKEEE

SMARCA2 = SMARCA2 (Homo sapiens, UniProt P51531); test: SMARCA2 capillary electrophoresis protein assay in RKO cells; format: cell-based; design: endogenous in cells; host or cells: RKO, NCI-H1568, A549, HCT116, LU99, HCC-364, HCT-15, HCC4006, SK-N-AS; details: for DC50 / SMARCA2 Dmax / Dmax: mean ± SD; for Dmax: RKO
Sequence of SMARCA2 (P51531 whole entry): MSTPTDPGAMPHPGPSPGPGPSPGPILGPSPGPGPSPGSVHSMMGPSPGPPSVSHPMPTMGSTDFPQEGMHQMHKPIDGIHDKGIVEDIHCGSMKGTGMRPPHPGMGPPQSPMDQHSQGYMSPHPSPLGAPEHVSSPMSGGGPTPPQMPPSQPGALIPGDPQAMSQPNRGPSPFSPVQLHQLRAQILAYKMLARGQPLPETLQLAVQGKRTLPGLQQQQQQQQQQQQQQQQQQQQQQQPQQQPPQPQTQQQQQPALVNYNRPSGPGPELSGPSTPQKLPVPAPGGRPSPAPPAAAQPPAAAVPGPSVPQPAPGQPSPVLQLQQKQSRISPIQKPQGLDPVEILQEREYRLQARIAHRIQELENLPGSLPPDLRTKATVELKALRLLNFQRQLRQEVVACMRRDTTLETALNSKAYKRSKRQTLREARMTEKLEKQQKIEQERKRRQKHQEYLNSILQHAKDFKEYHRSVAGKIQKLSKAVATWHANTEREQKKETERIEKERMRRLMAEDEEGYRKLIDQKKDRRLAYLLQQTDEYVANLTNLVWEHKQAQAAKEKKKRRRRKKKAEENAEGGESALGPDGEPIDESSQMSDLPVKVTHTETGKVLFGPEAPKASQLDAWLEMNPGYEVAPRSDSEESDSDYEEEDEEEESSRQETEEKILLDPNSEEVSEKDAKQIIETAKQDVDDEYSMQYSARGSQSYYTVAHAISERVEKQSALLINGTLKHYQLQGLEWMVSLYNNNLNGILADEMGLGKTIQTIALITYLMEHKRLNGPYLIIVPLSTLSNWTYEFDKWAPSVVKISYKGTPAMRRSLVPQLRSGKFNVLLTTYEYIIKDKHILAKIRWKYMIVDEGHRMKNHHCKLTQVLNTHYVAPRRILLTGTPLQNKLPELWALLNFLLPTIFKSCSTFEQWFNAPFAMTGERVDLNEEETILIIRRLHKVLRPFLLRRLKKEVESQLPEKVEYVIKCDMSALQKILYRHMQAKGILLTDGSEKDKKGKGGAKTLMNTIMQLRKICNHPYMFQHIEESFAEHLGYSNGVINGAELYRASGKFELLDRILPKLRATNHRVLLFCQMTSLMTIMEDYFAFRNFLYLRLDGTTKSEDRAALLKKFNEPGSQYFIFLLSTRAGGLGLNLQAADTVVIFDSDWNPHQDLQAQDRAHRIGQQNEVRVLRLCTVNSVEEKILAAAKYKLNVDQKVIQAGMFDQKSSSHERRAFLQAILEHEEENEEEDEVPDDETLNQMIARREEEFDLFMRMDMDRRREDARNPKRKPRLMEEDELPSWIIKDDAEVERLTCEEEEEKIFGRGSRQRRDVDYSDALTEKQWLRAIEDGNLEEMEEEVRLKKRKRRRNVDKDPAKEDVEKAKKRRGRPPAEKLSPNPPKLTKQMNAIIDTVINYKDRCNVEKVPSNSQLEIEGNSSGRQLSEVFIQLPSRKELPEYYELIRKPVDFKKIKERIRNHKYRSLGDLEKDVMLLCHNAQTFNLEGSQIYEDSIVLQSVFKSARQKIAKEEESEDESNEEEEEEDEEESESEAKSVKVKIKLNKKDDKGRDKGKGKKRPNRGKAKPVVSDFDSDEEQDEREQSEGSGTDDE
Experimental: 130,000–200,000 cells were seeded in 24-well plates and incubated until settled down or overnight. Compounds were dissolved in DMSO and added to cells in indicated concentrations using a digital dispenser following an optional media change. […] For SMARCA2/4 half-life determination, 150,000 or 200,000 cells were seeded in 24-well plates. […] For SMARCA2/4 re-synthesis measurements, 200,000 cells were seeded in 24-well plates. […] Medium was removed, cells were washed with PBS and lysed with 80 µl Lysis Buffer (MSD Tris Lysis Buffer (#R60TX-2) + Halt Inhibitor Cocktail (100x) + Benzonase 0.5 µL/ml). Samples were frozen at −80 °C and thawed at room temperature before use. Samples were transferred to a V-bottom plate and insoluble debris was pelleted by centrifugation for 5 min at maximum speed. The supernatant was transferred to a fresh plate. Master Mix and Ladder were prepared according to manufacturer’s instructions for 12–230 kDa Wes Separation Module, 8 × 25 capillary cartridges, Protein Simple #SM-W004 with Anti-Rabbit Detection Module for Wes, Peggy Sue or Sally Sue, Protein Simple #DM-001. 4.8 µl lysate were mixed with 1.2 µl Master Mix to achieve a protein concentration of ~0.5 µg/µl. […] Wes plates were prepared and run according to manufacturer’s instructions. Proteins were quantified with accompanying Compass Software. SMARCA2/4 protein levels were normalised to GAPDH. […] Where applicable, curves were fitted using a 4-parametric logistic model.

[2] = target: VCB: PROTAC: SMARCA4^BD ternary complex (Homo sapiens, UniProt P40337+P51532); test: TR-FRET ternary complex affinity and cooperativity, SMARCA4; format: binding; design: P51532, residues 1448–1569 with additional N-terminal SM residues; GST (TEV site) (N); His6 (TEV site) (N, cleaved yes); made in house; host or cells: SMARCA4^BD: Escherichia coli BL21(DE3)
Sequence of VCB: PROTAC: SMARCA4^BD ternary complex (P51532 1448-1569): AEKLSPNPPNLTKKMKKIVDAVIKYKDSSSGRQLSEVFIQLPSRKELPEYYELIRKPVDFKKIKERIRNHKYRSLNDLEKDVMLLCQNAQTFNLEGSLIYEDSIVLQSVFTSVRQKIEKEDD
Sequence of VCB: PROTAC: SMARCA4^BD ternary complex (P40337 54-213): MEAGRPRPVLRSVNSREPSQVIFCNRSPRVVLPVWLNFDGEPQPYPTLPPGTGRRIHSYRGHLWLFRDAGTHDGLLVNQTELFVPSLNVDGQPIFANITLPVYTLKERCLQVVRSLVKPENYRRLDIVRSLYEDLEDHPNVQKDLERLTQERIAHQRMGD
Sequence of VCB: PROTAC: SMARCA4^BD ternary complex (Q15369 17-112 partner): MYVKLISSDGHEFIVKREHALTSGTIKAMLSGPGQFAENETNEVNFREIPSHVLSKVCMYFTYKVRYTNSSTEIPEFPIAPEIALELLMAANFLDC
Sequence of VCB: PROTAC: SMARCA4^BD ternary complex (Q15370 1-104 partner): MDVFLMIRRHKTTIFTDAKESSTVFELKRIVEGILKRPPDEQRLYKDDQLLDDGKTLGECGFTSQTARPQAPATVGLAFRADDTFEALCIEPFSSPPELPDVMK

PBRM1BD5 [3] = test: TR-FRET ternary complex affinity and cooperativity, PBRM1; format: binding; details: ratio TR-FRET EC50 / TR-FRET EC50 +VCB measured in the same run, PBRM1BD5
PBRM1BD5 [4] = target: T2, PBRM1BD5 (Homo sapiens, UniProt P40337+Q86U86); test: as above; format: binding; details: TR-FRET competition for PBRM1BD5, + VCB; mean ± SD; read-out: TR-FRET Ternary PBRM1BD EC50 (PROTAC + VCB)
T2 construct: GST (TEV site) (N); His6 (TEV site) (N, cleaved yes); made in house; host or cells: PBRM1^BD5: Escherichia coli BL21(DE3)
T2 sequence (Q86U86 645-766): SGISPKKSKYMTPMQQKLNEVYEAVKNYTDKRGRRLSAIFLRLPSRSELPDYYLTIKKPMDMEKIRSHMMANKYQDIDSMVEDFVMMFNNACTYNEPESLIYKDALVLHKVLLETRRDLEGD
T2 sequence (P40337 54-213): as the sequence (P40337 54-213) above
T2 sequence (Q15369 17-112 partner): as the sequence (Q15369 17-112 partner) above
T2 sequence (Q15370 1-104 partner): as the sequence (Q15370 1-104 partner) above

PBRM1 BD = target: T3, PBRM1 BD (Homo sapiens, UniProt Q86U86); test: TR-FRET binary and ternary (PROTAC + VCB) affinity, PBRM1 bromodomain; format: binding; details: individual replicates
T3 construct: GST (TEV site) (N); made in house; host or cells: Escherichia coli BL21(DE3)

[5] = target: T4, (Homo sapiens, UniProt P51532); test: TR-FRET ternary complex affinity and cooperativity, SMARCA4; format: binding
T4 construct: P51532, residues 1448–1569 with additional N-terminal SM residues; GST (TEV site) (N); His6 (TEV site) (N, cleaved yes); made in house; host or cells: SMARCA4^BD: Escherichia coli BL21(DE3)
T4 sequence (P51532 1448-1569): as the sequence (P51532 1448-1569) above

[6] = TR-FRET competition for SMARCA2BD, without VCB, mean ± SD, read-out: TR-FRET SMARCA2BD EC50
[7] = binary, PROTAC alone, individual replicates, read-out: SMARCA2 BD EC50
[8] = PROTAC + VCB, individual replicates, read-out: Ternary SMARCA4 BD EC50 (PROTAC + VCB)
[9] = TR-FRET competition for SMARCA4BD, + VCB, mean ± SD, read-out: TR-FRET Ternary SMARCA4BD EC50 (PROTAC + VCB)
[10] = PROTAC + VCB, read-out: Ternary PBRM1 BD EC50 (PROTAC + VCB)
[11] = binary, PROTAC alone, read-out: PBRM1 EC50
[12] = TR-FRET competition for SMARCA4BD, without VCB, mean ± SD, read-out: TR-FRET SMARCA4BD EC50
[13] = binary, PROTAC alone, individual replicates, read-out: SMARCA4 BD EC50

SMILES	EC50 [1, 6] [nM]	EC50 [1, 7]	DC50 (SMARCA2; RKO (4 h)) [nM]	DC50 (SMARCA2; RKO (18 h)) [nM]	EC50 [2, 8]	EC50 [2, 9] [nM]	cooperativity α (PBRM1BD) (PBRM1BD5 [3])	EC50 (PBRM1BD5 [4]) [nM]	EC50 (PBRM1 BD; [10])	EC50 (PBRM1 BD; [11])	EC50 [5, 12] [nM]	EC50 [5, 13]	SMARCA2 Dmax (SMARCA2; RKO (4 h)) [%]	SMARCA2 Dmax (SMARCA2; RKO (18 h)) [%]	Dmax (SMARCA2; RKO (4 h)) [%]	Dmax (SMARCA2; RKO (18 h)) [%]	selectivity for SMARCA2 over SMARCA4 degradation (SMARCA2; Supplementary Data 2)
Cc1ncsc1-c1ccc(CNC(=O)[C@@H]2C[C@@H](O)CN2C(=O)[C@@H](NC(=O)C2(F)CC2)C(C)(C)C)c(OCCN2CCC(c3ccc4c(c3)n(C3CCCC3)c3nc(=O)c5c(Br)cccc5n43)CC2)c1 [compound 20]	78 ± 20	95.1 nM and 98.5 nM and 63.7 nM and 90.1 nM and 54.6 nM	> 25000	> 25000	312 nM and 310 nM and 294 nM and 321 nM	309 ± 11	1.1 ± 0.1	35 ± 4	30.2 nM and 37.8 nM and 37.5 nM	35.1 nM and 43.6 nM and 36.5 nM and 35.9 nM	120 ± 17	101 nM and 114 nM and 130 nM and 140 nM					
Cc1ncsc1-c1ccc(CNC(=O)[C@@H]2C[C@@H](O)CN2C(=O)[C@@H](NC(=O)C2(F)CC2)C(C)(C)C)c(OCCOCCOCCOCCN2CCC(c3ccc4c(c3)n(C3CCCC3)c3nc(=O)c5c(Br)cccc5n43)CC2)c1 [compound 22]	274 ± 41	242 nM and 328 nM and 288 nM and 245 nM	175 ± 165	148 ± 97	73.1 nM and 97.3 nM and 87.2 nM and 102 nM	89 ± 13	2.6 ± 0.1	38 ± 5	33.2 nM and 39.2 nM and 42.6 nM	84.2 nM and 107 nM and 111 nM (2×)	813 ± 126	659 nM and 965 nM and 837 nM and 819 nM	71 ± 25	75 ± 8			
Cc1ncsc1-c1ccc([C@H](COC(C)(C)CN2CCC(c3ccc4c(c3)n(C3CCCC3)c3nc(=O)c5c(Br)cccc5n43)CC2)NC(=O)[C@@H]2C[C@@H](O)CN2C(=O)[C@@H](NC(=O)C2(F)CC2)C(C)(C)C)cc1 [compound 28]	130 ± 18	132 nM and 140 nM and 145 nM and 139 nM and 134 nM and 133 nM and 154 nM and 106 nM and 96.3 nM and 137 nM	17 ± 8	5 ± 2	99.7 nM and 76.7 nM and 88 nM and 49.7 nM	76 ± 21	6.9 ± 1.9	4 ± 2	5.74 nM and 5.13 nM and 5.34 nM and 1.07 nM	37.2 nM and 28.8 nM and 29.6 nM and 10.8 nM	240 ± 55	300 nM and 283 nM and 195 nM and 201 nM	69 ± 4	76 ± 11			
Cc1ncsc1-c1ccc([C@H](COC(C)CN2CCC(c3ccc4c(c3)n(C3CCCC3)c3nc(=O)c5c(Br)cccc5n43)CC2)NC(=O)[C@@H]2C[C@@H](O)CN2C(=O)[C@@H](NC(=O)C2(F)CC2)C(C)(C)C)cc1 (stereo partly shown) [compound 9]	143 ± 27	132 nM and 149 nM and 140 nM (2×) and 172 nM and 134 nM and 115 nM and 202 nM and 128 nM	12 ± 4	5 ± 1	88.4 nM and 113 nM and 133 nM and 114 nM and 84.3 nM	105 ± 20	5.5 ± 1.7	7 ± 3	6.04 nM and 5.66 nM and 5.49 nM and 5.75 nM and 6.81 nM and 13.2 nM and 4.82 nM	31.7 nM and 35 nM and 40.8 nM and 29.8 nM and 31 nM	265 ± 34	228 nM and 295 nM and 276 nM			72 ± 7	76 ± 10	remarkable selectivity
